How the values were obtained:
Assay in all cases: relative viability (nuclei count vs DMSO), 5 days (fraction); higher = more cells survive
Tosedostat + Pictilisib = compound: CC(C)C[C@@H](C(=O)N[C@H](C(=O)OC1CCCC1)c1ccccc1)[C@H](O)C(=O)NO [Tosedostat] + CS(=O)(=O)N1CCN(Cc2cc3nc(-c4cccc5[nH]ncc45)nc(N4CCOCC4)c3s2)CC1 [Pictilisib] (partner 1 µM)
Summary of the method: (§1)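 Relative viability equals treated-well nuclei counts divided by vehicle-well nuclei counts. Counts came from 4× images of lung cancer cell lines grown in 1536-well plates for 5 days after pin-tool dosing on the day after seeding. Dosing used one drug alone or a fixed anchor-drug dose plus five library-drug doses (not always all listed) in √10 steps, and values are medians of duplicate plates.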

[1] = compound: CC1=NN=C(O1)C2=NN=C(C=C2)N3CCC(CC3)OC4=C(C=CC(=C4)F)Cl + CS(=O)(=O)CCNCc1ccc(-c2ccc3ncnc(Nc4ccc(OCc5cccc(F)c5)c(Cl)c4)c3c2)o1 [Lapatinib] (partner 2 µM)
Summary of the method: as §1

[2] = compound: CC1=NN=C(O1)C2=NN=C(C=C2)N3CCC(CC3)OC4=C(C=CC(=C4)F)Cl + Cc1nc(NC(=O)N2CCC[C@H]2C(N)=O)sc1-c1ccnc(C(C)(C)C(F)(F)F)c1 [Alpelisib] (partner 2 µM)
Summary of the method: as §1

Tosedostat + Lapatinib = compound: CC(C)C[C@@H](C(=O)N[C@H](C(=O)OC1CCCC1)c1ccccc1)[C@H](O)C(=O)NO [Tosedostat] + CS(=O)(=O)CCNCc1ccc(-c2ccc3ncnc(Nc4ccc(OCc5cccc(F)c5)c(Cl)c4)c3c2)o1 [Lapatinib] (partner 2 µM)
Summary of the method: as §1

Cell Line	relative viability (Tosedostat + Pictilisib; first compound 0.02 µM)	relative viability (Tosedostat + Pictilisib; first compound 0.06325 µM)	relative viability (Tosedostat + Pictilisib; first compound 0.2 µM)	relative viability (Tosedostat + Pictilisib; first compound 0.6325 µM)	relative viability (Tosedostat + Pictilisib; first compound 2 µM)	relative viability ([1]; first compound 0.253 µM)	relative viability ([1]; first compound 0.8 µM)	relative viability ([1]; first compound 2.53 µM)	relative viability ([1]; first compound 8 µM)	relative viability ([2]; first compound 0.253 µM)	relative viability ([2]; first compound 0.8 µM)	relative viability ([2]; first compound 2.53 µM)	relative viability ([2]; first compound 8 µM)	relative viability (Tosedostat + Lapatinib; first compound 0.02 µM)	relative viability (Tosedostat + Lapatinib; first compound 0.06325 µM)	relative viability (Tosedostat + Lapatinib; first compound 0.2 µM)	relative viability (Tosedostat + Lapatinib; first compound 0.6325 µM)	relative viability (Tosedostat + Lapatinib; first compound 2 µM)
HCC-366	0.167	0.154	0.0818	0.151	0.103	0.384	0.41	0.393	0.406	0.205	0.212	0.284	0.323	1.12	0.954	1	0.993	0.997
EMC-BAC-2	0.614	0.544	0.504	0.544	0.526	0.837	0.843	0.854	0.647	0.69	0.649	0.695	0.581	0.894	0.888	0.894	0.853	0.955
NCI-H460	0.31	0.407	0.353	0.365	0.365	0.313	0.326	0.283	0.276	0.356	0.359	0.394	0.391	1.13	0.915	1.07	0.921	0.999
NCI-H358	0.336	0.366	0.287	0.239	0.327	0.545	0.447	0.55	0.451	0.72	0.829	0.778	0.822	0.514	0.454	0.374	0.407	0.456
NCI-H1944	0.368	0.37	0.363	0.352	0.356	0.452	0.526	0.553	0.426	0.565	0.629	0.691	0.648	0.94	0.836	0.854	0.81	0.904
EPLC-272H	0.416	0.337	0.284	0.3	0.241	0.809		1.01	0.814	0.925		1.14	0.917	1.03	0.944	0.637	0.755	0.621
EBC-1	0.361	0.417	0.232	0.266	0.281	0.208	0.191	0.182	0.197	0.752	0.908	0.756	0.74	0.241	0.245	0.195	0.22	0.17
NCI-H2023	0.247	0.233	0.251	0.139	0.198	0.441	0.407	0.409	0.435	0.499	0.444	0.43	0.361	0.94	0.953	0.795	0.457	0.753
NCI-H838	0.522	0.5	0.456	0.652	0.638	0.86	0.645	0.842	0.78	0.833	0.867	0.916	0.947	0.93	0.914	0.961	0.904	1.24
NCI-H647	0.563	0.444	0.553	0.429	0.493	0.673	0.667	0.824	0.58	0.724	0.715	0.764	0.704	1.17	1.11	1.07	0.926	0.969
NCI-H1437	0.407	0.448	0.277	0.232	0.256	0.434	0.486	0.545	0.453	0.696	0.63	0.804	0.591	0.749	0.809	0.744	0.727	0.661
NCI-H3122	0.663	0.659	0.615	0.692	0.704	0.519	0.675	0.52	0.449	0.632	0.642	0.702	0.618	1.09	0.99	1.07	1.07	1.04
IA-LM	0.447	0.308	0.36	0.302	0.403	0.283	0.241	0.257	0.275	0.156	0.157	0.137	0.157	0.885	0.925	0.61	0.746	0.645
PC-14	0.789	0.647	0.555	0.385	0.458	0.294	0.31	0.302	0.313	0.849	0.827	0.885	0.857	0.273	0.32	0.348	0.269	0.371
SK-MES-1	0.382	0.317	0.381	0.315	0.311	0.452	0.528	0.445	0.518	0.786	0.953	0.859	0.871	0.41	0.482	0.473	0.472	0.472
NCI-H2170	0.31	0.33	0.385	0.291	0.289	0.268	0.241	0.291	0.26	0.646	0.593	0.626	0.574	0.25	0.258	0.273	0.289	0.276
NCI-H23	0.523	0.466	0.48	0.451	0.324	1.03		0.955	0.876	0.635		0.663	0.822	1.23	1.06	0.958	1	0.628
NCI-H596	0.424	0.471	0.385	0.446	0.388		0.845	0.932	0.888		0.535	0.444	0.391	1.21	1.16	1	1.22	1.07
